Paper PMC6269737, “Effect of Honokiol on Cytochrome P450 and UDP-Glucuronosyltransferase Enzyme Activities in Human Liver Microsomes” (Molecules, 2013)
“Also recorded” adds a separate entry of the source. Where two headings read alike, the source gives them in different places.

Key:
CYP1A2 = target: T1, CYP1A2 (Homo sapiens, UniProt P05177); assay: CYP1A2-catalyzed phenacetin O-deethylation inhibition in pooled human liver microsomes (LC-MS/MS); type: in vitro ADME
T1 sequence (P05177 1-516): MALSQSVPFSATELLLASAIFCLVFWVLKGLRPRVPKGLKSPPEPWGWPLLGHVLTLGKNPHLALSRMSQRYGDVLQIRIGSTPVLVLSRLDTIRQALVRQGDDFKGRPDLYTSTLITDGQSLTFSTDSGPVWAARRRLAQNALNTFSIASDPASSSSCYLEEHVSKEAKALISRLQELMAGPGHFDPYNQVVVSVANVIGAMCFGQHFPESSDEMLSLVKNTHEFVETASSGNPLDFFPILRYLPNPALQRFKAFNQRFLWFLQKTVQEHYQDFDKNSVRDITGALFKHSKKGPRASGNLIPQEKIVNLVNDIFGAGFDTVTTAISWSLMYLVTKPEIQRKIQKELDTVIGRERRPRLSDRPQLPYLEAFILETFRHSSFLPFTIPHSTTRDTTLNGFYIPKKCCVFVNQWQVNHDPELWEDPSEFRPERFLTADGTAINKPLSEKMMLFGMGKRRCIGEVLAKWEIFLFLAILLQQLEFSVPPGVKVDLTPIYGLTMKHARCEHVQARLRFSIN
Method: The inhibitory potential (IC50 values) of honokiol on CYP activities was evaluated in pooled human liver microsomes using liquid chromatography-tandem mass spectrometry (LC-MS/MS). […] Honokiol was dissolved in acetonitrile. […] After a 3 min preincubation at 37 °C, the reactions were initiated by addition of an NADP generating system and incubated for 15 min at 37 °C in a shaking water bath. The reaction was then stopped by placement of the tubes on ice and adding 100 μL of ice-cold methanol containing internal standards (^13C2, ^15N-acetaminophen for acetaminophen and N-deethylamodiaquine, and d9-1-hydroxybufuralol for 4-hydroxydiclofenac, 4-hydroxybupropion, 7-hydroxycoumarin, 4-hydroxymephenytoin, 1'-hydroxybufuralol, and 1'-hydroxymidazolam). The incubation mixtures were then centrifuged at 13,000 × g for 4 min. All incubations were performed in triplicate, and average values were used.
The reaction was initiated by the addition of the cocktail containing seven CYP probe substrates and bupropion.
The metabolites formed from the seven CYP cocktail substrates were simultaneously determined according to our previously described LC-MS/MS method with minor modification; the concentration of 4-hydroxybupropion for CYP2B6 activity was quantified separately by LC-MS/MS. A tandem mass spectrometer (TSQ Quantum Access, Thermo Scientific, San Jose, CA, USA) coupled with a Nanospace SI-2 LC system (Tokyo, Japan) was used. The column and autosampler temperatures were 50 °C and 6 °C, respectively. The mass spectrometer was equipped with an electrospray ionization (ESI) source and operated in positive ion mode. The ESI source settings for ionization of the metabolites were as follows: capillary voltage, 4200 V; vaporizer temperature, 350 °C; capillary temperature 330 °C; sheath gas pressure, 35 psi; auxiliary gas pressure, 15 psi. Quantification was performed by selected reaction monitoring (SRM) of [M+H]^+ ions and the related product ions for each metabolite. […] Analytical data were processed using Xcalibur® software (Thermo Scientific).
The incubation mixtures were centrifuged at 13,000 × g for 4 min, and the supernatants were diluted as follows: dilution of 20 μL supernatant with 180 μL of 25% methanol for CYP2C8; dilution of 50 μL supernatant with 50 μL of water for CYP2C9, CYP2C19, CYP2D6, and CYP1A2; and dilution of 20 μL supernatant with 80 μL of water for CYP2B6. Aliquots (5 μL) of the diluted supernatants were then analyzed by LC-MS/MS.
(§1) The apparent kinetic parameters for inhibitory potential (Ki values) were estimated from the fitted curves using Enzyme Kinetics Ver. 1.1 software (Systat Software Inc.).

UGT1A4 = target: T2, UGT1A4 (Homo sapiens, UniProt P22310); assay: UGT1A4-catalyzed trifluoperazine N-glucuronidation inhibition in pooled human liver microsomes; type: in vitro ADME; conditions: 5 μM trifluoperazine, pooled HLM (H161)
T2 sequence (P22310 29-534): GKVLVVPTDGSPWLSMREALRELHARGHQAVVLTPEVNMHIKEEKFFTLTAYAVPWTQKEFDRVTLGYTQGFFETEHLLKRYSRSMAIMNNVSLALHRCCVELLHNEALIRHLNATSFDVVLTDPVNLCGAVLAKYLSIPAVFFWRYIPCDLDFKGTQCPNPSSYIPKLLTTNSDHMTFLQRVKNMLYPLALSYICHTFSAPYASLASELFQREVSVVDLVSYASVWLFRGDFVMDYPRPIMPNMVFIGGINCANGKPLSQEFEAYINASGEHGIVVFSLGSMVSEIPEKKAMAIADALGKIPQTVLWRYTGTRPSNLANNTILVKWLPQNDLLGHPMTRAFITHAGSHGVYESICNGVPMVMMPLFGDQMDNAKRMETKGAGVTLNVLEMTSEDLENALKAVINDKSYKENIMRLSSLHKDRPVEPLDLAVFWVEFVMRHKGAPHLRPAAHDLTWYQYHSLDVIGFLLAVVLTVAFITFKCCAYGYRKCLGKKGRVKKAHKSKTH
Method: The inhibitory potency (IC50 value) of honokiol on UGT1A1-catalyzed 17β-estradiol 3-glucuronidation, UGT1A4-catalyzed trifluoperazine glucuronidation, UGT1A9-catalyzed propofol glucuronidation, and UGT2B7-catalyzed azidothymidine glucuronidation activities was determined in pooled human liver microsomes by LC-MS/MS [48]. […] Reactions were initiated by the addition of UDPGA (final concentration, 5 mM), and incubations were carried out at 37 °C in a shaking water bath for 30 min. Reactions were terminated by adding 100 μL of ice-cold methanol containing an internal standard (500 ng/mL ezetimibe for 17β-estradiol 3-glucuronide and propofol glucuronide; 30 ng/mL meloxicam for trifluoperazine glucuronide and azidothymidine glucuronide). The incubation mixtures were then centrifuged at 13,000 × g for 4 min, followed by dilution of 30 μL of the supernatant with 70 μL of water. An aliquot (5 μL) was injected onto the LC-MS/MS. All incubations were performed in triplicate and the mean values were used. Glucuronides produced from UGT isoform-specific substrates were determined by LC-MS/MS [49].
as §1

- IC50 (CYP1A2; 50 μM phenacetin (cocktail), pooled human liver microsomes (H161), read-out: IC50 (μM) of honokiol, no preincubation): 2.1 µM
- Ki (CYP1A2; 10–80 μM phenacetin, pooled HLM (H161)): 1.2 µM
- IC50 (CYP1A2; 30 min preincubation in the presence of NADPH, pooled HLM (H161), read-out: IC50 (μM) of honokiol, with preincubation): 4.7 µM
- IC50 (UGT1A4): 158 µM
Compound: C=CCc1ccc(O)c(-c2ccc(O)c(CC=C)c2)c1 [honokiol, 2-(4-hydroxy-3-prop-2-enyl-phenyl)-4-prop-2-enyl-phenol]
- Inhibition mode (CYP1A2; pooled HLM (H161)): noncompetitively; also recorded: noncompetitive
